Assay results reported in patent publication US9499553B2 (CHUGAI SEIYAKU KABUSHIKI KAISHA, priority 2013, dated 2016).
Structures can show the parent of a compound that is named as a salt. Where two headings read alike, the source gives them in different places.

Molecular target: T1, human NaPi-IIb (Homo sapiens, UniProt O95436)
T1 construct: expressed in transfected cells
T1 sequence (O95436 1-690): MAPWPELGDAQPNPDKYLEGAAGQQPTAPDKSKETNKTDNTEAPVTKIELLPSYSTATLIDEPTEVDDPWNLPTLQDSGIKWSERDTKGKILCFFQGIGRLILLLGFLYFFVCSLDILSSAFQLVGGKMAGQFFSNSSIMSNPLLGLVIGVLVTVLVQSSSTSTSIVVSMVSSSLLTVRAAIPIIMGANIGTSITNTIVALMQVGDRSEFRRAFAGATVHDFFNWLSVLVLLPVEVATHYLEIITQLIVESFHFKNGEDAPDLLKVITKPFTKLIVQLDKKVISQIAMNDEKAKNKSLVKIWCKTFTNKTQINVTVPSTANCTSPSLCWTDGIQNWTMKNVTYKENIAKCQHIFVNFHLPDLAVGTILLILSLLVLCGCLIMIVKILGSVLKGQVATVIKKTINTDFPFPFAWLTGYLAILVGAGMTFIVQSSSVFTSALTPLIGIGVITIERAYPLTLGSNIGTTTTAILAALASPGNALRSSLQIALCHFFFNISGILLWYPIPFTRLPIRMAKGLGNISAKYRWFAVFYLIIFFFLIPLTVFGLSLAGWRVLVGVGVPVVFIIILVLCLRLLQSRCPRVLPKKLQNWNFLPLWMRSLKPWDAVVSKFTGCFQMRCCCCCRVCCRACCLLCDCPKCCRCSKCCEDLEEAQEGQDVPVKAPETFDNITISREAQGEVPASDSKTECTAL
Assay: Inhibitory effect on 33PO4 uptake into human NaPi-IIb-expressing CHO cells
Type: cell-based
Procedure: Test Example 2: Inhibitory Effect on PO4 Uptake into Human NaPi-IIb-Expressing Cell CHO cells were transfected with human NaPi-IIb expression plasmids, and a stably human NaPi-IIb-expressing cell line was obtained using G418. The human NaPi-IIb-expressing cells were inoculated to a 96-well plate and incubated overnight in a CO2 incubator. […] After a given time, a 1/20 volume of buffer A containing ^33PO4 was added thereto and reacted at room temperature. After washing with ice-cold buffer A, a liquid scintillator was added to each reaction mixture, and the amount of ^33PO4 uptake was measured using TopCount.

[1] = read-out: IC50 against 33PO4 uptake into human NaPi-IIb-expressing cells

IC50 (read-out: IC50) [µM]	IC50 [1] [µM]	SMILES
7.6		CN1N(Cc2ccc(OCCN3CCOCC3(C)C)c(F)c2F)C(=O)C(C(=O)Nc2ccc(C(F)(F)F)cc2-c2cc(C(F)(F)F)ncn2)=C(O)C12CCC2 [Example 341]
	11.3	CN1N(Cc2ccc(OCC3CCCO3)c(F)c2F)C(=O)C(C(=O)Nc2ccc(C(F)(F)F)cc2-c2cc(C(F)(F)F)ncn2)=C(O)C12CCCC2 (centres unmarked) [Example 413]
	9.5	CN1N(Cc2ccc(OCCCCOCCO)c(F)c2F)C(=O)C(C(=O)Nc2ccc(C(F)(F)F)cc2-c2cc(C(F)(F)F)ncn2)=C(O)C12CCCC2 [Example 396]
8.6		CN1N(Cc2ccc(OCCN3CCOCC3)c(F)c2F)C(=O)C(C(=O)Nc2ccc(C(F)(F)F)cc2-c2cc(C(F)(F)F)ncn2)=C(O)C12CCCC2 [Example 318, 7-[[2,3-Difluoro-4-(2-morpholin-4-ylethoxy)phenyl]methyl]-10-hydroxy-6-methyl-8-oxo-N-[4-(trifluoromethyl)-2-[6-(trifluoromethyl)pyrimidin-4-yl]phenyl]-6,7-diazaspiro[4.5]dec-9-ene-9-carboxamide]
	7.8	CN1N(Cc2ccc(OCCCCOCCCO)c(F)c2F)C(=O)C(C(=O)Nc2ccc(C(F)(F)F)cc2-c2cc(C(F)(F)F)ncn2)=C(O)C12CCCC2 [Example 399]
	4.6	COCCN(C)CCOCCOCCOc1ccc(CN2C(=O)C(C(=O)Nc3ccc(C(F)(F)F)cc3-c3cc(C(F)(F)F)ncn3)=C(O)C3(CCCC3)N2C)c(F)c1F [Example 430]
8.8		CN1N(Cc2ccc(OCCN3CCOC(C)(C)C3)c(F)c2F)C(=O)C(C(=O)Nc2ccc(C(F)(F)F)cc2-c2cc(C(F)(F)F)ncn2)=C(O)C12CCC2 [Example 342]
18.3		CN1N(Cc2ccc(OCCN3CCOCC3)c(F)c2F)C(=O)C(C(=O)Nc2ccc(C(F)(F)F)cc2-c2cc(C(F)(F)F)ncn2)=C(O)C1(C)C [Example 313, 2-[[2,3-Difluoro-4-(2-morpholin-4-ylethoxy)phenyl]methyl]-5-hydroxy-1,6,6-trimethyl-3-oxo-N-[4-(trifluoromethyl)-2-[6-(trifluoromethyl)pyrimidin-4-yl]phenyl]pyridazine-4-carboxamide]
	18.4	CN1CCN(CCOc2ccc(CN3C(=O)C(C(=O)Nc4ccc(C(F)(F)F)cc4-c4cc(C(F)(F)F)ncn4)=C(O)C4(CCC4)N3C)c(F)c2F)CC1=O [Example 359]
6.9		COC(=O)CN(C)CCOc1ccc(CN2C(=O)C(C(=O)Nc3ccc(C(F)(F)F)cc3-c3cc(C(F)(F)F)ncn3)=C(O)C3(CCC3)N2C)c(F)c1F [Example 346]
21		C[C@H]1COC[C@H](C)N1CCOc1ccc(CN2C(=O)C(C(=O)Nc3ccc(C(F)(F)F)cc3-c3cc(C(F)(F)F)ncn3)=C(O)C3(CCC3)N2C)c(F)c1F [Example 343]
	17.1	CN1N(Cc2ccc(OCCNCCS(=O)(=O)O)c(F)c2F)C(=O)C(C(=O)Nc2ccc(C(F)(F)F)cc2-c2cc(C(F)(F)F)ncn2)=C(O)C12CCCC2 [Example 435]
	11	CN1N(Cc2ccc(OCCCCOC[C@H](O)CO)c(F)c2F)C(=O)C(C(=O)Nc2ccc(C(F)(F)F)cc2-c2ccc(C(F)(F)F)nc2)=C(O)C12CCC2 [Example 384]

The remaining lines, values behind:

SMILES	IC50 (read-out: IC50) [µM]	IC50 [1] [µM]
CC(C)(C)[C@H]1C(O)=C(C(=O)Nc2ccc(Cl)cc2-c2ccc(C(F)(F)F)nc2)C(=O)N(Cc2cccc(F)c2F)N1CC(F)(F)F [Example 247]	8.2	
CN1N(Cc2ccc(OCCN3C4CCC3COC4)c(F)c2F)C(=O)C(C(=O)Nc2ccc(C(F)(F)F)cc2-c2cc(C(F)(F)F)ncn2)=C(O)C12CCCC2 [Example 367]		14
Cc1cccc(CN2C(=O)C(C(=O)Nc3ccc(C(F)(F)F)cc3-c3cc(C(F)(F)F)ncn3)=C(O)[C@@]3(C)CCCN23)c1F [Example 215]	6.2	
C[C@]12CCCN1N(Cc1cccc(Cl)c1)C(=O)C(C(=O)Nc1ccc(C(F)(F)F)cc1-c1ccc(C(F)(F)F)nc1)=C2O [Example 169]	2.6	
CN1[C@@H](C(C)(C)C)C(O)=C(C(=O)Nc2cc(F)c(Br)c(F)c2)C(=O)N1Cc1cccc(F)c1F [Example 240]	9.1	
C[C@]12CCCN1N(Cc1ccc(Cl)cc1)C(=O)C(C(=O)Nc1cc(F)c(Br)c(F)c1)=C2O [Example 223]	17.9	
CC(C)[C@H]1C(O)=C(C(=O)Nc2ccc(Cl)cc2-c2ccc(C(F)(F)F)nc2)C(=O)N(Cc2ccc(OCCN3CCOCC3)c(F)c2F)N1C [Example 281]	18.8	
Cc1c(-c2cc(C(F)(F)F)ccc2NC(=O)C2=C(O)[C@H](C(C)(C)C)N(C)N(Cc3ccc(OCCN4CCOCC4)c(F)c3F)C2=O)ncnc1C(F)(F)F [Example 278]	6.6	
Cc1cccc(CN2C(=O)C(C(=O)Nc3ccc(C(F)(F)F)cc3-c3ccc(C(F)(F)F)nc3)=C(O)[C@@]3(C)CCCN23)c1F [Example 205]	1.6	
C[C@]12CCCN1N(Cc1ccccc1F)C(=O)C(C(=O)Nc1ccc(C(F)(F)F)cc1-c1ccc(C(F)(F)F)nc1)=C2O [Example 200]	1.3	
Cc1cccc(CN2C(=O)C(C(=O)Nc3ccc(C(F)(F)F)cc3-c3cc(C(F)(F)F)ncn3)=C(O)[C@@]3(C)CCCN23)c1 [Example 186]	5.5	
COc1ncc(-c2cc(C(F)(F)F)ccc2NC(=O)C2=C(O)[C@@]3(C)CCCN3N(Cc3cccc(F)c3F)C2=O)c(OC)n1 [Example 72]	8.3	
C[C@]12CCCN1N(Cc1cc(F)ccc1F)C(=O)C(C(=O)Nc1cc(F)c(Br)c(F)c1)=C2O [Example 193]	6.4	
CSc1ccc(-c2cc(C(F)(F)F)ccc2NC(=O)C2=C(O)[C@@]3(C)CCCN3N(Cc3ccc(C#CCCCCC(=O)O)c(F)c3F)C2=O)cn1 [Example 117, 7-[4-[[(4aR)-4-Hydroxy-4a-methyl-3-[[2-(6-methylsulfanylpyridin-3-yl)-4-(trifluoromethyl)phenyl]carbamoyl]-2-oxo-6,7-dihydro-5H-pyrrolo[1,2-b]pyridazin-1-yl]methyl]-2,3-difluorophenyl]hept-6-ynoate]	9.5	
C[C@]12CCCN1N(Cc1cccc(Cl)c1F)C(=O)C(C(=O)Nc1ccc(C(F)(F)F)cc1-c1ccc(C(F)(F)F)nc1)=C2O [Example 198]	2.4	
C[C@]12CCCN1N(Cc1ccc(SCCN3CCOCC3)c(F)c1F)C(=O)C(C(=O)Nc1ccc(C(F)(F)F)cc1-c1ccc(C(F)(F)F)nc1)=C2O [Example 163, (4aR)-1-[[2,3-Difluoro-4-(2-morpholin-4-ylethylsulfanyl)phenyl]methyl]-4-hydroxy-4a-methyl-2-oxo-N-[4-(trifluoromethyl)-2-[6-(trifluoromethyl)pyridin-3-yl]phenyl]-6,7-dihydro-5H-pyrrolo[1,2-b]pyridazine-3-carboxamide hydrochloride]	6.8	
C[C@]12CCCN1N(Cc1ccc(F)cc1)C(=O)C(C(=O)Nc1ccc(C(F)(F)F)cc1-c1cc(C(F)(F)F)ncn1)=C2O [Example 208]	6.6	
CN1N(Cc2ccc(C#CCN3CCOCC3)c(F)c2F)C(=O)C(C(=O)Nc2ccc(Cl)cc2-c2cc(C(F)(F)F)ncn2)=C(O)C1(C)C [Example 316]	14.2	
CN1N(Cc2ccc(OCCN3CCOCC3)c(F)c2F)C(=O)C(C(=O)Nc2ccc(C(F)(F)F)cc2-c2ccc(C(F)(F)F)nc2)=C(O)C1(C)C [Example 314, 2-[[2,3-Difluoro-4-(2-morpholin-4-ylethoxy)phenyl]methyl]-5-hydroxy-1,6,6-trimethyl-3-oxo-N-[4-(trifluoromethyl)-2-[6-(trifluoromethyl)pyridin-3-yl]phenyl]pyridazine-4-carboxamide]	11.8	
